# Assay results as given in paper PMC8901748, “A novel prostaglandin E receptor 4 (EP4) small molecule antagonist induces articular cartilage regeneration” (Cell Discovery, 2022).
# pIC50: −log10 of the molar value. Like-named read-outs stand apart in the source and are kept apart here.
# Assays:
# [1] = system: primary articular chondrocytes; test: Cell viability by CCK-8 assay; format: cell-based, mouse; conditions: 72 h, read-out: IC50 (cell viability, toxicity in chondrocytes)
# Procedure: The cell viability was evaluated by CCK-8 assay (Dojindo Molecular Technologies). Primary chondrocytes were plated in the 96-well plates and treated with the EP4 antagonists or DMSO for 72 h. A total of 10 μl CCK-8 was added to each well, the cells were incubated in the presence of CCK-8 for 2–3 h. The optical density (OD) of each well at 450 nm was recorded on a Microplate Reader (SPECTRA MAX190). The absorbance values were normalized by subtracting blank values of […]. The cell viability (% of control) is calculated as the percentage of (ODtest − ODblank)/(ODcontrol − ODblank). The 50% inhibitory concentration (IC50) was calculated with GraphPad Prism software using the sigmoidal dose-response function.
# (§1) ATDC5 cell line was purchased from Riken BioResource Center (Tsukuba, Japan) and grown in a 1:1 mixture of DMEM/F12 medium (Corning, 10-092-CVR) supplemented with 5% fetal bovine serum (Gibco, 10099, USA) and 1% penicillin-streptomycin solution (Life Technologies). Cells were maintained at 37 °C under 5% CO2. Primary chondrocytes were obtained from knee joint cartilage of newborn mice. Knee joints were dissected from the tibia plateau and femoral condyle articular cartilage of mouse pups and digested in 0.1% collagenase type II (Sigma) overnight at 37 °C and chondrocytes were harvested by centrifugation. Primary chondrocytes were cultured at a density of 5 × 10^3 cells per ml at 37 °C with 5% CO2. DMEM/F12 medium with 10% fetal bovine serum (FBS) and 1% penicillin–streptomycin was used to culture the primary chondrocytes. Chondrogenic differentiation were induced with chondrogenic medium, which contains insulin-transferrin-selenium (ITS) (Sigma, I3146), 10 ng/ml TGF-β3 (PEPROTECH, 100-36E, USA), 100 nM Dexamethasone (Sigma, D4902), 50 μg/ml VC (Sigma), 1 mM sodium pyruvate (Sigma) and 40 μg/ml proline (Sigma), and/or treatment with rmIL-1β (R&D, 401-ML/CF), TNFα (PEPROTECH, 300-01A-50) in DMEM/F12 for indicated days. Western blotting was performed according to standard protocols. Antibodies used were: rabbit anti-Mmp3 (1:1000, HuaBio), rabbit anti-Mmp13 (1:500, abcam, ab39012), rabbit anti-p-CREB (1:2000, Cell Signaling Technology, 87G3), rabbit anti-CREB (1:2000, Cell Signaling Technology, 48H2), mouse anti-GAPDH (1:5000; Sigma-Aldrich, G8795), rabbit anti-Col2 (Abcam, Ab34712), rabbit anti-STAT3 (1:2000; Abcam, ab68153), rabbit anti-p-STAT3 (Y705) (1:2000; Abcam, ab76315), rabbit anti -p65 (1:1000; CST, 3034), rabbit anti-p-p65 (1:1000; CST, 3033), and rabbit anti-IκBα (1:1000; Abways, CY5026).
# [2] = system: Mmp3, Mmp13, Col2, p-CREB, p-STAT3, p-p65, IκBα in primary mouse chondrocytes; test: Western blotting in primary articular chondrocytes; format: cell-based
# Procedure: as §1
# primary chondrocytes = test: Chondrocyte micromass differentiation, Alcian blue staining; format: cell-based, mouse; conditions: chondrogenic media, 7 days
# Procedure: ATDC5 cell line was purchased from Riken BioResource Center (Tsukuba, Japan) and grown in a 1:1 mixture of DMEM/F12 medium (Corning, 10-092-CVR) supplemented with 5% fetal bovine serum (Gibco, 10099, USA) and 1% penicillin-streptomycin solution (Life Technologies). Cells were maintained at 37 °C under 5% CO2. Primary chondrocytes were obtained from knee joint cartilage of newborn mice. Knee joints were dissected from the tibia plateau and femoral condyle articular cartilage of mouse pups and digested in 0.1% collagenase type II (Sigma) overnight at 37 °C and chondrocytes were harvested by centrifugation. Primary chondrocytes were cultured at a density of 5 × 10^3 cells per ml at 37 °C with 5% CO2. DMEM/F12 medium with 10% fetal bovine serum (FBS) and 1% penicillin–streptomycin was used to culture the primary chondrocytes. […]
# Micromass cultures were rinsed with PBS, fixed in PFA for 10 min, and then incubated with Alcian blue staining solution (1.0% Alcian blue in 0.1 N HCl) overnight at 4 °C. […] Alcian blue-stained cultures were extracted using 6 M guanidine hydrochloride and absorbance was measured at 620 nm.
# [3] = system: 4 × 48-p89-Luc (Sox9 binding enhancer, Col2a1 minimal promoter) in ATDC5 cells; test: 4 × 48-p89-Luc luciferase reporter assay; format: cell-based, mouse
# Procedure: (§2) Six firefly luciferase reporters were used in the Luciferase assay, including CRE-Luc (PathDetect CRE cis-Reporting System; Stratagene, La Jolla CA) driven by a basic promoter (TATA box) plus four repeats of CRE; Sox9 promoter-Luc contains human SOX9 proximal promoter region (−1034 bp to +67 bp)[45]; 4 × 48-p89-Luc, mouse Col2a1 minimal promoter. AP-1-Luc, Nf-κb-Luc, STAT-Luc were obtained from Stratagene. Chondrocytes were cultured in 24-well plates and 300 ng firefly luciferase reporter constructs were transiently transfected using transfection reagent TransExellent-DNA (Cenji Biotech Inc, China) following manufacturer’s instruction, and 15 ng of the Copia-Renilla luciferase reporter was co-transfected as a normalization control. Cells were treated with the indicated reagents for 48 h after transfection. The Dual-Luciferase measurements were performed in triplicate using the Luciferase assay kit (Promega) and a LUMIstar Omega luminometer (BMG Labtech, Mornington, Australia).
# CRE-Luc in ATDC5 cells = test: CRE-Luc luciferase reporter assay; format: cell-based, mouse; conditions: for CRE-Luc activity: 12 hr
# Procedure: as §2, with “Cells were treated with the indicated reagents for 48 h after transfection.” left out
# AP-1-Luc in ATDC5 cells = test: AP-1-Luc luciferase reporter assay; format: cell-based, mouse; conditions: 2 ng/ml IL-1β, 30 μM HL-43, 6 h
# Procedure: as §2
# [4] = system: cAMP in primary chondrocytes; test: cAMP assay; format: cell-based; conditions: primary mouse chondrocytes, 2 h
# Procedure: The cAMP concentration of primary chondrocytes was detected by cAMP dynamic kit (Cisbio, France) following the manufacturer’s instructions. cAMP standards were diluted according to the kit instructions. Cells were treated with HL-43 for 2 h and the relative fold change of cAMP was determined by comparing with the cAMP standard curve.
# [5] = system: STAT3 nuclear translocation in ATDC5 cells; test: Immunofluorescence of STAT3 and p-STAT3 subcellular localization; format: cell-based, mouse; conditions: HL-43 (30 μM), 5 ng/ml IL-1β, 24 h
# gastrointestinal tract = test: Gastrointestinal tract toxicity (data not shown); format: in vivo; conditions: compared to Celecoxib
compound,measurement,setting,value
C[C@H](NC(=O)c1c(-c2ccccc2)nnn1CCOc1ccc(F)cc1)c1ccc(C(=O)O)cc1 [HL-43],pIC50,[1],< 3.00
same,Phosphorylation of CREB by Western blotting,"[2]; chondrocytes, 2 ng/ml IL-1β, 100 nM PGE2, 1 h",enhanced by HL-43 in a dose-dependent manner
same,Mmp3/13 expression by Western blotting,"[2]; primary articular chondrocytes, 1 ng/ml IL-1β, 24 h",downregulated Mmp3/13 expression in a dose-dependent manner
same,Phosphorylation of STAT3,"[2]; primary mouse articular chondrocytes, 2 ng/ml IL-1β, 1 h",reduced the phosphorylation of STAT3
same,Phosphorylation of p65 and degradation of IκBα,"[2]; primary mouse articular chondrocytes, IL-1β, 30 μM HL-43, 1 h",little effects
same,Col2 expression by Western blotting,"[2]; primary mouse chondrocytes, 24 h",dose-dependently induced Col2 expression
same,Chondrogenesis of primary chondrocytes (Alcian blue),primary chondrocytes,promoted the chondrogenesis of the primary chondrocytes in a dose-dependent manner
same,4 × 48-p89-Luc reporter activity,[3],dose-dependently increased
same,CRE-Luc reporter activity under pro-inflammatory conditions,"CRE-Luc in ATDC5 cells; 2 ng/ml IL-1β or 100 nM PGE2, 6 h",dose-dependently activated
same,CRE-Luc activity,CRE-Luc in ATDC5 cells,increase CRE-Luc activity in a dose dependent manner
same,AP-1 luciferase reporter activity,AP-1-Luc in ATDC5 cells,not AP-1 or NF-κB
same,cAMP production,[4],dose-dependently induced cAMP production
same,IL-1β-induced nuclear translocation of STAT3 and p-STAT3,[5],suppressed
same,Toxicity in gastrointestinal tract,gastrointestinal tract,lower toxicity
CCc1nc2c(C)nc(C)cc2n1-c1ccc(CCNC(=O)NS(=O)(=O)c2ccc(C)cc2)cc1 [Grapiprant],pIC50,"[1]; Mus musculus, Chondrocyte",3.95
same,CRE-Luc activity,CRE-Luc in ATDC5 cells,increase CRE-Luc activity in a dose dependent manner
